In patent publication US11591297B2, “Compound having PD-L1 expression-suppressing action” (TOHOKU UNIVERSITY, priority 2019, dated 2023):

Tested on: human IL-2 promoter
Test: IL-2luc activity (luciferase under control of IL-2 promoter) of Jurkat cells co-cultured with IFN-γ-treated A549 cells
Type: cell-based
Conditions: control (DMSO) IFN-γ(−) defined as 100%, control IFN-γ(+) 54.5
Protocol: The pIL-2luc obtained by the insertion of a human IL-2 promoter sequence (−945 to 53) into the multiple cloning site of pGL-3 vector basic (Promega) was preliminarily transfected into Jurkat cells. PMA and PHA-L were added into the Jurkat cells and the cells were pre-cultured. Simultaneously, IFN-γ was added into A549 cells and the cells were pre-cultured. The supernatants of each culture liquid at the time of the pre-culture of each cell were removed, the culture liquids were co-cultured in new medium. The luciferase activity of the co-cultured Jurkat cells was measured. Each test compound was added into the A549 cell culture liquid during the pre-culture.
A549 cells were suspended in DMEM medium at a concentration of 3×10^5 cells/mL to prepare a suspension, and the suspension was dispensed into a T25 flask in an amount of 5 mL and cultured
Separately, 5 μg of pIL-2luc DNA and 15 μL of TransIT-Jurkat reagent (Takara Bio: Cat #V2124) were added into 500 μL of serum-free medium, and the medium was allowed to stand at room temperature for 15 minutes. […]
LAS in Luciferase Assay System was dissolved in LAB to prepare a luciferase reagent. 10 μL of the sample was mixed with 50 μL of the luciferase reagent, and the chemiluminescence (Relative Luminescence Intensity: RLU) of the sample was measured using GloMax20/20 (Promega). […]

O=C(Nc1ccc(Oc2ccc(S(F)(F)(F)(F)F)cc2)cc1)C1CCCN(C(=O)c2ccc([N+](=O)[O-])cc2)C1 (centres unmarked) [Example 5, 1-(4-Nitrobenzoyl)-N-(4-(4-(pentafluorosulfanyl)phenoxy)phenyl)piperidine-3-carboxamide]
activity at 0.5 µM (0.5 μM): 63.5% | activity at 1 µM (1 μM): 85.9%
